{"source": "patent US20070196517A1", "about": "“Modified Saponin Molluscicide” (priority 2005, published 2007)", "origin": "cited, not measured here", "key": {"golden apple snails": {"tested_on": "golden apple snails", "details": "rice fields (Bayer, 2005)"}, "tropical fish (carp)": {"tested_on": "tropical fish (carp)", "details": "carp (WHO 2002)"}}, "note": "Counter-ions that a name gives are not always drawn.", "data": [{"smiles": "O=C(Nc1ccc([N+](=O)[O-])cc1Cl)c1cc(Cl)ccc1O", "note": "[Niclosamide, 2-aminoethanol salt of 2′,5-dichloro-4′,nitro-salicylanilide]", "values": [{"measurement": "effective doses for control of golden apple snail", "setting": "golden apple snails", "result": "0.5 to 1.0", "unit": "mg/L"}, {"measurement": "LC50 (kills 50% of tropical fish)", "setting": "tropical fish (carp)", "result": 0.14, "unit": "µg/mL"}]}]}
